Assays:
[1] = target: T1, BaF3 TELJAK3 cells (Homo sapiens, UniProt P52333); test: Cellular screening, BaF3 TEL:JAK3 cells, Alamar Blue; type: cell-based; conditions: 40 hr, read-out: BafT_J3 IC50_nM
T1 construct: fused on or other part: TEL (ETV6) N-terminal part, coding nucleotides 1-487, serves as the oligomerising partner; It is fused through a Sal I site to the JAK3 kinase domain and expressed from pTRE2 in BaF3 cells bearing pTET-off; P41212 (Transcription factor ETV6)
T1 sequence (P52333 1-1124): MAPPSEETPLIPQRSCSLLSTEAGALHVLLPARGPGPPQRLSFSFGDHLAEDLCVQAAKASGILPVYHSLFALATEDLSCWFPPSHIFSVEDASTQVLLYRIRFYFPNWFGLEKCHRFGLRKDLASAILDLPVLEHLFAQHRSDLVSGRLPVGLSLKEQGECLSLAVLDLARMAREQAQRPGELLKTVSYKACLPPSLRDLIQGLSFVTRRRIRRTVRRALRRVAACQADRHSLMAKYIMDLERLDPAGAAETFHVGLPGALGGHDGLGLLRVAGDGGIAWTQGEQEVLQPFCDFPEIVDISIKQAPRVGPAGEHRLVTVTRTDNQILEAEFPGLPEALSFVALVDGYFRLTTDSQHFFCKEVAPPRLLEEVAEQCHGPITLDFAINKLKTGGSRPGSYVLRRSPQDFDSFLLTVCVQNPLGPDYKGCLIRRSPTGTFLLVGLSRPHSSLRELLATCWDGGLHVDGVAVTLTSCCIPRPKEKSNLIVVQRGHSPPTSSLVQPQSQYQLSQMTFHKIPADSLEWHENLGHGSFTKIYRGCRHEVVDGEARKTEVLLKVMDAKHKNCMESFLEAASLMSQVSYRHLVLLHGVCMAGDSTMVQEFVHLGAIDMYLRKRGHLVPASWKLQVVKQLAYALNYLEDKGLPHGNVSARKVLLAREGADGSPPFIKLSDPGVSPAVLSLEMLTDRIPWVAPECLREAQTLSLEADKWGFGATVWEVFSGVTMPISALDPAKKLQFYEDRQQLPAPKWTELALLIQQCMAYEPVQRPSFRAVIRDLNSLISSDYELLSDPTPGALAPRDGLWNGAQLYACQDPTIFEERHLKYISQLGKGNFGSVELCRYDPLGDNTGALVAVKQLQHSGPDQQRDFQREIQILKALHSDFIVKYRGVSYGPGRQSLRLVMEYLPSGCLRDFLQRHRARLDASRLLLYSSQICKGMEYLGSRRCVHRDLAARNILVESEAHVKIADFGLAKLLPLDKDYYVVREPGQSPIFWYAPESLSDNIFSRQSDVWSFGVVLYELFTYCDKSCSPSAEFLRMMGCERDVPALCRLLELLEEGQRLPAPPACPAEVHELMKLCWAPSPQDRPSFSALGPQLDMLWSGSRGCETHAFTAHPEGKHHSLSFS
Method in brief: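 Alamar Blue signal at 544 nm, developed for 4–6 h, measured viability after 40 h of compound treatment at 37 °C, 5% CO2. Cells were growth-factor-independent BaF3 lines transfected with a TEL/JAK3 kinase-domain fusion under tet-off control. They were cultured in DMEM, 10% Tet-approved FBS, lacking WEHI 3B conditioned medium.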

[2] = system: CTLL2; test: Cellular screening, CTLL2 cells, Alamar Blue; type: cell-based; conditions: Mus musculus, CTLL-2, read-out: CTLL2 IC50_nM
Method in brief: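 Viability is read with Alamar Blue at 544 nm, the dye added for the final 4-6 hours. Compounds were incubated for 40 hr with CTLL2 cells taken from late-log-phase culture, at 37° C in 5% CO2.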

SMILES | GI50 [1] [µM] | IC50 [2] [µM]
C=CC(=O)Nc1cccc(Nc2nccc(SC)n2)c1 [Compound 7, N-(3-(4-(methylthio)pyrimidin-2-ylao)phenyl)acrylamide] | < 5 | < 5
N#CCc1ccc(Sc2ccnc(Nc3ccc(N4CCOCC4)cc3)n2)cc1 [Compound 210, 2-(4-(2-(4-morpholinophenylao)pyrimidin-4-ylthio)phenyl)acetonitrile] | > 20 | > 20
Cc1cnc(Nc2ccc(N3CCOCC3)cc2)nc1Sc1ccc(CO)cc1 [Compound 220, (4-(5-methyl-2-(4-morpholinophenylao)pyrimidin-4-ylthio)phenyl)methanol] | < 5 | < 1
Cc1cnc(Nc2ccc(N3CCOCC3)cc2)nc1Sc1ccc(N2C(=O)COCC2=O)cc1 [Compound 190, 4-(4-(5-methyl-2-(4-morpholinophenylao)pyrimidin-4-ylthio)phenyl)morpholine-3,5-dione] | > 20 | > 20
N#Cc1c(N)ncn1Cc1ccc(Sc2ccnc(Nc3ccc(N4CCOCC4)cc3)n2)cc1 [Compound 203, 4-ao-1-(4-(2-(4-morpholinophenylao)pyrimidin-4-ylthio)benzyl)-1H-imidazole-5-carbonitrile] | < 1 | < 1
Cc1cnc(Nc2ccc(N3CCOCC3)cc2)nc1Sc1ccc(C(=O)N2CCCC2)cc1 [Compound 224, (4-(5-methyl-2-(4-morpholinophenylao)pyrimidin-4-ylthio)phenyl)(pyrrolidin-1-yl)methanone] | > 20 | > 20
N#Cc1ncn(Cc2ccc(Sc3ccnc(Nc4ccc(N5CCOCC5)cc4)n3)cc2)c1N [Compound 202, 5-ao-1-(4-(2-(4-morpholinophenylao)pyrimidin-4-ylthio)benzyl)-1H-imidazole-4-carbonitrile] | < 5 | < 5
Cc1cnc(Nc2ccc(N3CCOCC3)cc2)nc1Sc1ccc(C(C#N)N2CCN(C)CC2)cc1 (stereo not drawn) [Compound 225, 2-(4-(5-methyl-2-(4-morpholinophenylao)pyrimidin-4-ylthio)phenyl)-2-(4-methylpiperazin-1-yl)acetonitrile] | < 5 | < 5
Cc1cnc(Nc2ccc(N3CCOCC3)cc2)nc1Sc1ccc(NC(=O)CO)cc1 [Compound 229, 2-hydroxy-N-(4-(5-methyl-2-(4-morpholinophenylao)pyrimidin-4-ylthio)phenyl)acetamide] | < 20 | < 20
Cc1cnc(Nc2ccc(N3CCOCC3)cc2)nc1Sc1ccc(NC2CCOC2=O)cc1 (stereo not drawn) [Compound 228, 3-(4-(5-methyl-2-(4-morpholinophenylao)pyrimidin-4-ylthio)phenylao)dihydrofuran-2(3H)-one] | > 20 | > 20
Cc1cnc(Nc2cccc(S)c2)nc1Sc1ccc(NC(=O)CCl)cc1 [Compound 195, 2-chloro-N-(4-(2-(3-mercaptophenylao)-5-methylpyrimidin-4-ylthio)phenyl)acetamide] | < 20 | > 20
Cc1cnc(Nc2ccc(N3CCOCC3)cc2)nc1Sc1cccc(CO)c1 [Compound 212, (3-(5-methyl-2-(4-morpholinophenylao)pyrimidin-4-ylthio)phenyl)methanol] | > 20 | > 20
Cc1cnc(Nc2ccc(N3CCOCC3)cc2)nc1Sc1ccc(CC#N)cc1 [Compound 222, 2-(4-(5-methyl-2-(4-morpholinophenylao)pyrimidin-4-ylthio)phenyl)acetonitrile] | > 20 | > 20
Cc1cnc(Nc2ccc(N3CCOCC3)cc2)nc1Sc1ccc(C=O)cc1 [Compound 219, 4-(5-methyl-2-(4-morpholinophenylao)pyrimidin-4-ylthio)benzaldehyde] | < 5 | > 20
Cc1cnc(Nc2cccc(NS(C)(=O)=O)c2)nc1Sc1ccc(CO)cc1 [Compound 226, N-(3-(4-(4-(hydroxymethyl)phenylthio)-5-methylpyrimidin-2-ylao)phenyl)methanesulfonamide] | < 5 | –
Cc1cnc(Nc2ccc(N3CCOCC3)cc2)nc1Sc1ccc(N2CCSCC2=O)cc1 [Compound 197, 4-(4-(5-methyl-2-(4-morpholinophenylao)pyrimidin-4-ylthio)phenyl)thiomorpholin-3-one] | > 20 | > 20
Cc1cnc(Nc2ccc(N3CCOCC3)cc2)nc1Sc1ccc(C(C#N)N2CCOCC2)cc1 (stereo not drawn) [Compound 223, 2-(4-(5-methyl-2-(4-morpholinophenylao)pyrimidin-4-ylthio)phenyl)-2-morpholinoacetonitrile] | < 20 | < 5
CON(C)C(=O)c1ccc(Sc2nc(Nc3ccc(N4CCOCC4)cc3)ncc2C)cc1 [Compound 218, N-methoxy-N-methyl-4-(5-methyl-2-(4-morpholinophenylao)pyrimidin-4-ylthio)benzamide] | < 20 | > 20
NC(=O)c1ccc(Sc2ccnc(Nc3ccc(N4CCOCC4)cc3)n2)cc1 [Compound 207, 4-(2-(4-morpholinophenylao)pyrimidin-4-ylthio)benzamide] | > 20 | –
c1cc(Sc2ccc(Cn3cncn3)cc2)nc(Nc2ccc(N3CCOCC3)cc2)n1 [Compound 204, 4-(4-((1H-1,2,4-triazol-1-yl)methyl)phenylthio)-N-(4-morpholinophenyl)pyrimidin-2-ae] | < 20 | < 20
N#Cc1c(N)ncn1Cc1cccc(Sc2ccnc(Nc3ccc(N4CCOCC4)cc3)n2)c1 [Compound 199, 4-ao-1-(3-(2-(4-morpholinophenylao)pyrimidin-4-ylthio)benzyl)-1H-imiazole-5-carbonitrile] | < 20 | < 20
Cc1cnc(Nc2ccc(O)cc2)nc1Sc1ccc(N)cc1 [Compound 191, 4-(4-(4-aophenylthio)-5-methylpyrimidin-2-ylao)phenol] | < 5 | < 5
